Test results from paper PMC10046692 (Cancers, 2023).

Tests used:
[1] = Toxicity observation in xenograft study; assay type: in vivo; settings: xenograft nude mice, 20 mg/kg orally
Experimental: (§1) All animals were maintained in germ-free environments, and the study was carried out per IACUC guidelines that the University of Louisville authorized. Athymic nude Balb/c mice (nu/nu) were obtained from The Jackson Laboratory at 6 weeks of age. C4-2B and 22Rv1 cells (1–1.5 × 10^6, approximately) were injected into separate flanks of the mice (n = 6) for subcutaneous tumor xenograft studies using a final volume of 100 μL of phosphate-buffered saline and Matrigel (1:1). Once the tumors reached ~50–100 mm^3, the mice were randomly divided into two groups; one group received a vehicle and the other groups received SB1-46 (20 mg/kg) orally for […] for 4 weeks. Mice were monitored twice weekly, and tumor volumes were measured once a week.
It has been reported that the inhibition of AR-mediated survival signaling by small molecules results in either cell cycle arrest or the induction of apoptosis in CRPC cells. Our studies also observed the induction of pro-apoptotic machinery and concomitant downregulation of pro-survival signaling in SBI-46-treated CRPC cells.

HDAC6 = molecular target: T1, HDAC6 (Homo sapiens, UniProt Q9UBN7); experiment: HDAC inhibition, fluorescence-based assay (BPS Bioscience); assay type: biochemical; settings: HDAC6 versus HDAC1
T1 construct: purchased BPS Bioscience (contract research organization that ran the assay)
T1 sequence (Q9UBN7 1-1215): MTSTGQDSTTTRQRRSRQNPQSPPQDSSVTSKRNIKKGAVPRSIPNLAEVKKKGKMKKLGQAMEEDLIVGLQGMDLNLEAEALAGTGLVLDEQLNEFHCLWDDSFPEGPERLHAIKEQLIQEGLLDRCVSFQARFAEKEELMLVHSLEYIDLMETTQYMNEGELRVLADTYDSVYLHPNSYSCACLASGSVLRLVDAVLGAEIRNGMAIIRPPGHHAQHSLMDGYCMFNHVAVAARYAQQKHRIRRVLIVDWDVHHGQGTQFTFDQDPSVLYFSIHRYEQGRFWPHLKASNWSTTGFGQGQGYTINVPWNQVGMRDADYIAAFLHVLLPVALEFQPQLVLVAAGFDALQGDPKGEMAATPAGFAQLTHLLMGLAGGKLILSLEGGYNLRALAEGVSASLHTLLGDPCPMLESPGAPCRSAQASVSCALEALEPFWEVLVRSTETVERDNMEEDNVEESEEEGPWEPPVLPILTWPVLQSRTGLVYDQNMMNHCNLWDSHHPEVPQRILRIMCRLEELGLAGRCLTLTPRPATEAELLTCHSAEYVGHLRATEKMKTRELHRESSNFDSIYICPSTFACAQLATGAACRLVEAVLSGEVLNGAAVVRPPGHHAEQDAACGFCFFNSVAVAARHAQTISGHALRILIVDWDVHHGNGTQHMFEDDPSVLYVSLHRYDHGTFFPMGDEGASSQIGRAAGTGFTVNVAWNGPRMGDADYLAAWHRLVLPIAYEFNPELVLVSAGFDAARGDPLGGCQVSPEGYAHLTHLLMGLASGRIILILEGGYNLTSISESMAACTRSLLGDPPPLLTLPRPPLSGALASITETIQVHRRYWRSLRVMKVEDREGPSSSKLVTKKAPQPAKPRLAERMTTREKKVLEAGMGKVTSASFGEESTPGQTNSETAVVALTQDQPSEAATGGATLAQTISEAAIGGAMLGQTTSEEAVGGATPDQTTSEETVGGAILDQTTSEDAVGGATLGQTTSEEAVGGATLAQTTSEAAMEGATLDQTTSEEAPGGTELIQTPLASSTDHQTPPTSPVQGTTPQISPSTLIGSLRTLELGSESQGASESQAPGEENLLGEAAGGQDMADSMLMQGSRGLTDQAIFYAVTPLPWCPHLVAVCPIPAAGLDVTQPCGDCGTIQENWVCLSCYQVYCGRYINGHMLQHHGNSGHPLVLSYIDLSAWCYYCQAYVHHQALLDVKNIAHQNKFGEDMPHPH
Experimental: In vitro HDAC inhibition was performed by the contract research organization (CRO) BPS Bioscience while an AR-binding assay was performed by Eurofins Panlabs. (St. Charles, MO, USA). These assays were performed through contract agreements with these CROs.

C4-2B cells [2] = experiment: Soft agar colony formation assay; assay type: cell-based, human; settings: p = 0.001
Description: (§2) The CytoSelectTM 96-well In Vitro Tumor Sensitivity Assay Kit was used to perform the colony formation assay to detect anchorage-independent growth (Cell Biolabs, Inc., San Diego, CA, USA). LNCaP, C4-2B, and 22Rv1 cells (5 × 10^3 cells) that had been exposed to either the vehicle or SBI-46 were harvested and used for the assay following the manufacturer’s instructions. Colonies were manually counted after being stained with 0.005% crystal violet after ten days.

RWPE-1 cells = assay type: cell-based
Experimental: (§3) The effect of the treatments on prostate cancer and normal prostate epithelial cells’ (LNCaP, 22Rv1, C4-2B, PC3, and RWPE1) viability was evaluated using the Alamar blue assay. Cells were seeded into 96-well plates, and after growing to 60–75% confluency, they were treated with vehicle control (DMSO, Sigma Aldrich, St. Louis, MO, USA) or various concentrations of SBI-46 in respective media for 24 h. At the termination of exposure, cells were incubated with 100 μL of 3% Alamar Blue solution in a complete growth medium at 37 °C for 2 h. Absorbance was measured, and data were analyzed following the manufacturer’s instructions (Life Technologies Corporation, Eugene, OR, USA).

[3] = system: AR-FL, AR-V7 and PSA expression in CRPC cells; experiment: Western blot of AR-FL, AR-V7 and PSA expression; assay type: cell-based, Human
HEK-293 cells = experiment: cells; assay type: cell-based
Experimental: (§4) Human PCa cells (LNCaP and 22Rv1) and normal prostate epithelial (RWPE-1) and kidney (HEK-293 and VERO) cells were obtained from American […] (ATCC, Manassas, VA, USA). C4-2B was obtained from the ViroMed Laboratories (Minneapolis, MN). The cells were grown on a specified medium previously described. Dihydrotestosterone (DHT) (1 nM) (Cerilliant, TX, USA) studies were performed in phenol red-free RPMI1640 supplemented with 10% charcoal-stripped FBS (Gemini, West Sacramento, CA, USA).

VERO cells = experiment: cells; assay type: cell-based
Experimental: as §4

[4] = system: acetylated H4 and tubulin in LNCaP cells; experiment: Western blot of H4 and tubulin acetylation (intracellular HDAC inhibition); assay type: cell-based, Human; settings: 0.5 and 5 µM, 6 h
Experimental: To probe H4 and tubulin acetylation status, LNCaP cells were seeded into a 6-well plate at 1 × 10^6/well in RPMI for 24–48 h until the confluency reached 80%. […] Cells were treated for 6 h and scraped out of the well. The cells were washed with cold PBS three times and lysed with RIPA buffer (110 μL) (VWR, VWRVN653—100 mL) containing phosphatase inhibitor (Fisher Thermo, A32957, Waltham, MA, USA) and protease inhibitor (Fisher Thermo, A32955). The cell lysates were vortexed for 15 s, followed by sonication for 90 s. The lysates were then centrifuged at 14,000 rpm for 10 min, and the supernatants were collected. The total protein concentration was determined using a BCA protein assay kit (BioVision, K813-2500, Milpitas, CA, USA). Based on the results from the BCA assay, the lysates were diluted to make an equal protein concentration, and 20 μg of each lysate was loaded to each well of the TGX MIDI 4–20% gel (Biorad, cat. 5671093, Hercules, CA, USA) and ran at 150 V for 70 min. […]

LNCaP cells [5] = experiment: Soft agar colony formation assay; assay type: cell-based, Human; settings: p = 0.001
Description: as §2

22Rv1 cells [6] = experiment: Soft agar colony formation assay; assay type: cell-based, Human; settings: p = 0.001
Description: as §2

C4-2B xenograft tumors = experiment: Subcutaneous xenograft study in nude mice; assay type: in vivo; settings: 20 mg/kg b.w. orally, five days/week for four weeks
Experimental: as §1
(§5) Finally, in a nude mice model, we evaluated the efficacy of orally administered SBI-46 in xenograft tumors from 22Rv1 and C4-2B cells. Athymic BALB/c nude mice were subcutaneously injected with 22Rv1 and C4-2B (1 × 10^6 cells), and when the tumors reached 50–100 mm^3, either the vehicle or SBI-46 (20 mg/kg b.w.) were given orally for five days/week for four weeks.

22Rv1 xenograft tumors = experiment: Subcutaneous xenograft study in nude mice; assay type: in vivo; settings: 20 mg/kg b.w. orally, five days/week for four weeks
Experimental: as §1, §5

C4-2B cells [7] = experiment: Annexin V-FITC / PI apoptosis assay; assay type: cell-based, human; settings: p = 0.01
Description: As previously described, apoptosis was detected using the annexin V-fluorescein isothiocyanate (FITC) versus propidium iodide (PI) assay (FITC Annexin V Apoptosis Detection Kit I, BD Pharminogen).

PC-3 cells = experiment: Cell viability, Alamar blue assay; assay type: cell-based; settings: treated for 24 h
Experimental: as §3

C4-2B cells [8] = experiment: Cell viability, Alamar blue assay; assay type: cell-based; settings: Homo sapiens; treated for 24 h; read-out: growth inhibition IC50, C4-2B
Experimental: as §3

LNCaP cells [9] = experiment: Cell viability, Alamar blue assay; assay type: cell-based; settings: Homo sapiens, treated for 24 h, read-out: growth inhibition IC50, LNCaP
Experimental: as §3

22Rv1 cells [10] = experiment: Cell viability, Alamar blue assay; assay type: cell-based; settings: Homo sapiens, treated for 24 h, read-out: growth inhibition IC50, 22Rv1
Experimental: as §3

CC1(C)C(=O)N(c2ccc(C#N)c(C(F)(F)F)c2)C(=O)N1Cc1ccc(-c2cn(CCCCCCCC(=O)NO)nn2)cc1F [SBI-46]
toxicity in vivo, gross pathological examination of vital organs [1]: not toxic
selectivity for HDAC6 (HDAC6): ~ 4 fold
colony-forming ability, C4-2B (C4-2B cells [2]): reduced the colony-forming ability
toxicity in normal prostate epithelial cell line RWPE-1 (RWPE-1 cells): no significant toxicity
expressions of AR-FL and AR-V7 [3]: downregulated
toxicity in kidney cell line HEK-293 (HEK-293 cells): no significant toxicity
IC50 (HEK-293 cells; Homo sapiens, HEK293, Figure 1B): 16.4 ± 2.22 µM
toxicity in kidney cell line VERO (VERO cells): no significant toxicity
IC50 (VERO cells; Chlorocebus sabaeus, Vero, Figure 1B): 40 ± 4.57 µM
acetylation status of H4 and α-tubulin [4]: dose-dependent upregulation of acetylated H4 and tubulin
colony-forming ability, LNCaP (LNCaP cells [5]): reduced the colony-forming ability
colony-forming ability, 22Rv1 (22Rv1 cells [6]): reduced the colony-forming ability
tumor volume and weight, C4-2B xenograft (C4-2B xenograft tumors): significant decrease
tumor volume and weight, 22Rv1 xenograft (22Rv1 xenograft tumors): significant decrease
induction of apoptosis (annexin V-FITC staining) (C4-2B cells [7]): 18%
effect on viability of AR-null PC-3 cells (PC-3 cells): not effective
IC50 (C4-2B cells [8]): 0.48 µM
IC50 (LNCaP cells [9]): 0.5 µM
IC50 (22Rv1 cells [10]): 0.56 µM
